Results reported in ChEMBL document CHEMBL1777708, “An expeditious access to 5-pyrimidinol derivatives from cyclic methylglyoxal diadducts, formation of argpyrimidines under physiological conditions and discovery of new CFTR inhibitors” (Eur J Med Chem, 2011).
The source made the active and inactive calls. The rule behind the calls is not given here.

Key:
[1] = Dissociation constant, pKa of the compound by spectrophotometry; type: physicochemical
[2] = target: Cystic fibrosis transmembrane conductance regulator (Homo sapiens) (UniProt P13569); test: Inhibition of wild type CFTR expressed in CHO cells by [125I]iodide efflux assay; type: cell-based
Chain of Cystic fibrosis transmembrane conductance regulator (Homo sapiens) (P13569 whole entry, looked up): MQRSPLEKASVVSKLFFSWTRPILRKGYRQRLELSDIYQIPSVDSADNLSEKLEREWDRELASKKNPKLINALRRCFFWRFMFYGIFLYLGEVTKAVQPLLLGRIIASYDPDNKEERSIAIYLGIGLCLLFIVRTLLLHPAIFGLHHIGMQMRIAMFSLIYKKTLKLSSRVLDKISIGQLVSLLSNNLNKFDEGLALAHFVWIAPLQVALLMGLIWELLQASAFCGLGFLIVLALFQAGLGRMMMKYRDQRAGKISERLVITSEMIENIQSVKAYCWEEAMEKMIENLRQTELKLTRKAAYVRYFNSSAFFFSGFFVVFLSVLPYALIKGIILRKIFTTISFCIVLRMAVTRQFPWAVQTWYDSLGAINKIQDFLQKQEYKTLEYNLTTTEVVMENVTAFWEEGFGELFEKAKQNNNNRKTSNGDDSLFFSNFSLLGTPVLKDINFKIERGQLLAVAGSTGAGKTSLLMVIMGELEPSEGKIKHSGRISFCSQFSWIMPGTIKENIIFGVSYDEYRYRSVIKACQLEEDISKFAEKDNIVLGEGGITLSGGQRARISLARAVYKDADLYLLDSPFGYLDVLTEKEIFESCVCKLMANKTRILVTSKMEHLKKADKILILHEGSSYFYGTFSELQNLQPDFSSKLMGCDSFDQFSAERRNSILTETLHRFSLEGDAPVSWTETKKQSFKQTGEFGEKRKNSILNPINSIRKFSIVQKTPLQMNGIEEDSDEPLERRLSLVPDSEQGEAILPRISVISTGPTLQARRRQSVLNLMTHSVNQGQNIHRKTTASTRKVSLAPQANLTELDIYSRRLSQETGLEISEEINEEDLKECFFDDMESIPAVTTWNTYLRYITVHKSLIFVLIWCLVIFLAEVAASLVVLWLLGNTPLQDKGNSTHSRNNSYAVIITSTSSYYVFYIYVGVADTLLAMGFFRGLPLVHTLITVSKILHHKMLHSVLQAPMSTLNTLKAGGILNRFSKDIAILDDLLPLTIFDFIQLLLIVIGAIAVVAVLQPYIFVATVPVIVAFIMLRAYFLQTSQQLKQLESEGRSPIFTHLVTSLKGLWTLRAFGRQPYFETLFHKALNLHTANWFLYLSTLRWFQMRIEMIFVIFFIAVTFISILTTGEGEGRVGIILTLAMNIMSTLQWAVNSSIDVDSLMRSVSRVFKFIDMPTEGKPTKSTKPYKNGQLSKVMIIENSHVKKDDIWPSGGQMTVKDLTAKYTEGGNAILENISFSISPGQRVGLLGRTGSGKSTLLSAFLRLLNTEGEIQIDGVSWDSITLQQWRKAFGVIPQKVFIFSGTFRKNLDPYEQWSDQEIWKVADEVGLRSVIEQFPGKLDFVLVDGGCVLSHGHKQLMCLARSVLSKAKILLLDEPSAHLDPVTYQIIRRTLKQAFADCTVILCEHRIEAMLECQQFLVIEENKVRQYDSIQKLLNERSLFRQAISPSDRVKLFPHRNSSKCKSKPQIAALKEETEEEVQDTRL

SMILES: Cc1nc2c3ccccc3cc[n+]2c(C)c1[O-]
- pKa [1]: 4

SMILES: C[C@]1(C(=O)O)N=C2C=CC=CN2[C@](C)(O)[C@H]1O
- inhibition [2]: inactive

SMILES: C[C@]1(C(=O)O)N=C2C=CC=CN2[C@](C)(O)[C@@H]1O
- inhibition [2]: inactive
